The values below come from PMC3246799 (Science (New York, N.Y.), 2011).

The experiment addresses T1, AHR2-2 (tomcod AHR2) (Microgadus tomcod, UniProt B6E9W5).
T1 sequence (B6E9W5 1-1104): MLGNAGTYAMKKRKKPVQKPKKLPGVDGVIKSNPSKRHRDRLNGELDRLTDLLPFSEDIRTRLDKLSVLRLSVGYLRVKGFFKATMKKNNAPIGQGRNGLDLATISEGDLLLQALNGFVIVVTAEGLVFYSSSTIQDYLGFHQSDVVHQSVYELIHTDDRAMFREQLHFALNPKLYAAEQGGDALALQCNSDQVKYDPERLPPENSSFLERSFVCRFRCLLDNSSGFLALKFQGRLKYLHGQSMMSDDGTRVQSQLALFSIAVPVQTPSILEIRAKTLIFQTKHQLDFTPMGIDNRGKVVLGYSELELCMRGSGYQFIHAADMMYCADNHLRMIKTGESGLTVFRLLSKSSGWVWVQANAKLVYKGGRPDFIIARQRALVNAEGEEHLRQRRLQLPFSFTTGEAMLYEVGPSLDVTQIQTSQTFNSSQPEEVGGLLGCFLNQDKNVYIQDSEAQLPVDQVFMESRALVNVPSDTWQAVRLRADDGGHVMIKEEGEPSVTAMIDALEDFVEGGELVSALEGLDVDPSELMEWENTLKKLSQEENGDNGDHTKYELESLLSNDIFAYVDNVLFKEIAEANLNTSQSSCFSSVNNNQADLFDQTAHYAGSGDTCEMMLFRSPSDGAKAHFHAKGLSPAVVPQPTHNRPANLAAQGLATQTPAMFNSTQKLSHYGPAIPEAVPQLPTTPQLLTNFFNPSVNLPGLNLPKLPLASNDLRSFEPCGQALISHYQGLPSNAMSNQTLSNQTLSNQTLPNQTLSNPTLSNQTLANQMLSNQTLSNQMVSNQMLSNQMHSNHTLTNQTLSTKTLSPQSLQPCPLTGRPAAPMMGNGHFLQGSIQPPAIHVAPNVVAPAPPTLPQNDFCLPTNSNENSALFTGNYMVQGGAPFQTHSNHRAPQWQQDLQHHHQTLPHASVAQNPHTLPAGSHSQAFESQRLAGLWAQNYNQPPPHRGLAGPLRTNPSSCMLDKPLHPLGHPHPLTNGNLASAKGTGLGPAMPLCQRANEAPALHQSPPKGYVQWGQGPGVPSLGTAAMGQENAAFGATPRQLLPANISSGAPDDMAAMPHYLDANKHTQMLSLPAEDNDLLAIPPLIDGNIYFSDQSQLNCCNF
Kind of experiment: saturation binding of [3H]TCDD, velocity sedimentation on sucrose gradients. The following applies: labelled compound; 0.1 to 12 nM [3H]TCDD; apparent equilibrium constant.

On to `Clc1cc2c(cc1Cl)Oc1cc(Cl)c(Cl)cc1O2` [TCDD, 2,3,7,8-tetrachlorodibenzo-p-dioxin], for which the Kd turned out to be 1.27 nM.
